Laboratory results reported in patent US20260258051A1, “Camptothecin Compound, Preparation Method Therefor and Use Thereof” (SICHUAN KELUN-BIOTECH BIOPHARMACEUTICAL CO., LTD., priority 2022, published 2026).
Like-named read-outs stand apart in the source and are kept apart here.

How the values were obtained:
MDA-MB-231 cells = assay: Inhibitory effect on MDA-MB-231 cell proliferation; format: cell-based; conditions: Homo sapiens; MDA-MB-231, 72 h incubation, Cell Counting-Lite 2.0
Method: (1) Cell plating: First, tumor cells MDA-MB-231 were cultured with corresponding culture medium, the cells were digested with trypsin and centrifuged, then the cells were resuspended and counted, and the cells were adjusted to an appropriate concentration for plating.
(§1) Co-incubation of the compounds of the present invention and tumor cells: 90 μL of cell suspension was added to 96-well plates respectively. After cell adherence, 10 μL of bioactive molecules (compounds of the present invention) diluted with culture medium were added into the wells of the above plates, and incubated for 72 h.
(§2) In vitro cell viability detection: After the incubation, 50 μL of Cell Counting-Lite™ 2.0 reagent (Vazyme) was added to each well, shaken and mixed well in the dark, and reacted for 10 minutes before testing. Microplate reader (manufacturer: BMG, Model: PHERA Star-FS) was used for reading. The culture wells without cells were used as the background RLU, and the culture wells with cells but no compound were used as the cell control RLU. Cell inhibition rate=1−(sample RLU−background RLU)/(cell control RLU−background RLU)×100%. The half-inhibition concentration (IC50) of compound was calculated by fitting the curve according to the four-parameter model.

HCC1806 cells = assay: Inhibitory effect on HCC1806 cell proliferation; format: cell-based; conditions: Homo sapiens; HCC1806, 72 h incubation, Cell Counting-Lite 2.0
Method: (1) Cell plating: First, tumor cells HCC1806 were cultured with corresponding culture medium, the cells were digested with trypsin and centrifuged, then the cells were resuspended and counted, and the cells were adjusted to an appropriate concentration for plating.
as §1, §2

MDCK cells = assay: Permeability test in MDCK cell model; format: in vitro ADME
Method: (§3) The MDCK cell model was used to evaluate the permeability of the compounds, the LC-MS/MS method was used to determine the concentration of the substance to be tested, and the apparent permeability coefficient (Papp) and efflux ratio were calculated [Efflux ratio=Papp(B→A)/Papp(A→B)].
(§4) Complete culture medium: 10% fetal bovine serum and 1% penicillin/streptomycin were added to MEM culture medium.
(§5) Digestive solution: 0.05% trypsin-EDTA.
(§6) HBSS buffer: HBSS containing Ca^2+, Mg^2+.
(§7) Permeating solution: HBSS containing 10 mM Hepes, 4% BSA, pH 7.4.
(§8) Compound stock solution: a certain amount of the compound to be tested was weighed and formulated with DMSO to prepare a 10 mM stock solution.
(§9) MDCK cells (26th generation) in the logarithmic growth phase were digested and dispersed evenly with 0.05% trypsin-EDTA, and then inoculated into the Transwell chamber at 3*10^5 cells/cm^2, with 200 μL on the A side and 1000 μL on the B side. After inoculation, the medium was changed once every day and the culturing was carried out for 3 to 4 days.
(§10) The cell culture medium was discarded by pipetting, then washing was carried out three times with the permeating solution. 200 μL of permeating solution was added to A side and 1000 μL of permeating solution was added to B side. A voltage resistance meter was used to measure the cell transmembrane resistance (TEER). After the TEER value of the cells was measured, the permeating solution on both sides was discarded by pipetting, and the solution was added. After 120 minutes, 150 μL of samples were taken from A side and B side, respectively, and frozen at −80° C. before testing. Then, 10 μg/ml Fluorescent Yellow was added to A side. After incubation for 30 minutes, 100 μL of solution at B side was pipetted and added into a 96-well white plate. The fluorescence value was measured at the wavelengths of Ex=485 nm and Em=530 nm using a microplate reader, and the permeance was calculated (which was less than 1%).
(§11) 80 μL of the compound to be tested was taken, added to 320 μL of acetonitrile solution containing internal standard (30 ng/mL Tolbutamide), vortexed, and centrifuged for 10 min (4000 rpm, 4° C.), and the supernatant was taken for LC-MS/MS analysis.
(§12) Excel 2013 was used to calculate Papp values and Papp ratio of B side→A side to A side→B side, and the recovery rates of each Control Compound and the compound to be tested were calculated.
(§13) Apparent permeability coefficient (Papp) of compound was calculated according to the following formula:
(§14) C0 was the initial concentration (μM) of the drug to be tested at the donor, (dCr/dt)×Vr was the rate (μM/s) at which the drug to be tested appeared at the receiver, Vr was the solution volume (mL) at the receiver, and A was the surface area (cm^2) of polycarbonate membrane.
(§15) Evaluation criteria: Low permeability: Papp≤0.5 (×10^−6 cm/s) • Medium permeability: 0.5<Papp<2.5 (×10^−6 cm/s) • High permeability: Papp≥2.5 (×10^−6 cm/s)
(§16) Efflux ratio (ER) was calculated according to Papp:
(§17) [formula] • wherein, Papp(B→A) was the apparent permeability coefficient of the drug to be tested from the BL (baso-lateral) end to the AP (apical) end, and Papp (A→B) was the apparent permeability coefficient of the drug to be tested from the AP end to the BL end.
(§18) • Probably being an efflux transporter substrate (Probably): ERa≥2 and ERa/ERi>2 • Likely being an efflux transporter substrate (Likely): ERa≥2 • Unlikely or impossibly being an efflux transporter substrate (Poor or non): ERa<2 • wherein, ERi and ERa were the efflux ratios of the compound to be tested in the presence and absence of P-gp inhibitor, respectively.

[1] = Permeability test in MDCK cell model; format: in vitro ADME; conditions: dog; for efflux ratio at 120 min, 2 μM: pH 7.4, 2.00 μM, Papp(B→A)/Papp(A→B), absence of P-gp inhibitor, read-out: Efflux ratio (ERa)
Method: as §3, §4, §5, §6, §7, §8, §9, §10, §11, §12, §13, §14, §15, §16, §17, §18

NCI-N87 cells = assay: Inhibitory effect on NCI-N87 cell proliferation; format: cell-based; conditions: Homo sapiens, read-out: IC50 (nM), inhibitory activity on NCI-N87 cell proliferation
Method: (1) Cell plating: First, tumor cells NCI-N87 were cultured with corresponding culture medium, the cells were digested with trypsin and centrifuged, then the cells were resuspended and counted, and the cells were adjusted to an appropriate concentration for plating.
as §1, §2

HT29 cells = assay: Inhibitory effect on HT29 cell proliferation; format: cell-based; conditions: Homo sapiens, HT-29; HT29, 72 h incubation, Cell Counting-Lite 2.0
Method: (1) Cell plating: First, tumor cells HT29 were cultured with corresponding culture medium, the cells were digested with trypsin and centrifuged, then the cells were resuspended and counted, and the cells were adjusted to an appropriate concentration for plating.
as §1, §2

NCI-H358 cells = assay: Inhibitory effect on NCI-H358 cell proliferation; format: cell-based; conditions: Homo sapiens; NCI-H358, 72 h incubation, Cell Counting-Lite 2.0
Method: (1) Cell plating: First, tumor cells NCI-H358 were cultured with corresponding culture medium, the cells were digested with trypsin and centrifuged, then the cells were resuspended and counted, and the cells were adjusted to an appropriate concentration for plating.
as §1, §2

MDA-MB-453 cells = assay: Inhibitory effect on MDA-MB-453 cell proliferation; format: cell-based; conditions: Homo sapiens; MDA-MB-453, 72 h incubation, Cell Counting-Lite 2.0
Method: (1) Cell plating: First, tumor cells MDA-MB-453 were cultured with corresponding culture medium, the cells were digested with trypsin and centrifuged, then the cells were resuspended and counted, and the cells were adjusted to an appropriate concentration for plating.
as §1, §2

Jeko-1 cells = assay: Inhibitory effect on Jeko-1 cell proliferation; format: cell-based; conditions: Homo sapiens; Jeko-1, 72 h incubation, Cell Counting-Lite 2.0
Method: (1) Cell plating: First, tumor cells Jeko-1 were cultured with corresponding culture medium, the cells were resuspended and counted, and finally the cells were adjusted to an appropriate concentration for plating.
as §1, §2

[2] = pH 7.4, concentration 2.00 μM, 120 minutes, A to B, read-out: Papp A to B
[3] = pH 7.4, concentration 2.00 μM, 120 minutes, B to A, read-out: Papp B to A
[4] = NCI-N87, 72 h incubation, Cell Counting-Lite 2.0

Compound | IC50 (MDA-MB-231 cells) | IC50 (HCC1806 cells) | Efflux transporter substrate evaluation from efflux ratio (MDCK cells; 2.00 μM) | Permeability class according to the Papp(A→B) results (MDCK cells; 2.00 μM) | efflux ratio at 120 min, 2 μM [1] | Papp A→B at 120 min, 2 μM [1, 2] | Papp B→A at 120 min, 2 μM [1, 3] | IC50 (NCI-N87 cells; NCI-N87, 72 h) | IC50 (HT29 cells) | IC50 (NCI-H358 cells) | IC50 (MDA-MB-453 cells) | IC50 (Jeko-1 cells) | Permeability class according to the Papp(A→B) results (MDCK cells) | Papp A→B at 120 min, 2 μM ([1]; pH 7.4) | Papp B→A at 120 min, 2 μM ([1]; pH 7.4) | IC50 (NCI-N87 cells; [4])
CC[C@@]1(O)C(=O)OCc2c1cc1n(c2=O)Cc2c-1nc1cc(F)c(Cl)cc1c2CN [Compound 1-1, (S)-11-(aminomethyl)-9-chloro-4-ethyl-8-fluoro-4-hydroxy-1,12-dihydro-14H-pyrano[3′,4′:6,7]indolizino[1,2-b]quinolin-3,14(4H)-dione] | 3.55 nM | 1.23 nM | not efflux transporter substrates or were weak efflux transporter substrates | high-permeability | 1.41 | 2.59 ×10⁻⁶ cm/s | 3.65 ×10⁻⁶ cm/s | 8.59 nM | 1.07 nM | 25.7 nM | 291 nM |  |  |  |  | 
CC[C@@]1(O)C(=O)OCc2c1cc1n(c2=O)Cc2c-1nc1cc(F)c(Cl)cc1c2CNC(=O)C(O)C1CC1 (stereo partly shown) [Compound 2-4] |  | 1.08 nM |  |  |  |  |  | 5.72 nM | 5.99 nM | 53.4 nM | 95.6 nM | 0.34 nM |  |  |  | 
CC[C@@]1(O)C(=O)OCc2c1cc1n(c2=O)Cc2c-1nc1cc(F)c(Cl)cc1c2CNC(=O)C(O)C(F)(F)F (stereo partly drawn) [Compound 2-19, N—(((S)-9-chloro-4-ethyl-8-fluoro-4-hydroxy-3,14-dioxo-3,4, 12,14-tetrahydro-1H-pyrano[3′,4′:6,7]indolizino[1,2-b]quinolin-11-yl)methyl)-3,3,3-trifluoro-2-hydroxypropionamide] |  | 0.78 nM | not efflux transporter substrates or were weak efflux transporter substrates |  | 1.48 |  |  |  | 2.93 nM | 12.7 nM |  | 1.09 nM | low-permeability | 0.5 ×10⁻⁶ cm/s | 0.73 ×10⁻⁶ cm/s | 5.69 nM
C=CC(O)C(=O)NCc1c2c(nc3cc(F)c(Cl)cc13)-c1cc3c(c(=O)n1C2)COC(=O)[C@]3(O)CC (stereo partly drawn) [Compound 2-22, N—(((S)-9-chloro-4-ethyl-8-fluoro-4-hydroxy-3,14-dioxo-3,4, 12,14-tetrahydro-1H-pyrano[3′,4′:6,7]indolizino[1,2-b]quinolin-11-yl)methyl)-2-hydroxy-3-enamine] |  | 6.09 nM | could be efflux transporter substrates |  | 2.24 |  |  |  | 10.2 nM |  |  | 1.11 nM | medium-permeability | 0.71 ×10⁻⁶ cm/s | 1.59 ×10⁻⁶ cm/s | 7.27 nM
CC[C@@]1(O)C(=O)OCc2c1cc1n(c2=O)Cc2c-1nc1cc(F)c(C)c3c1c2[C@@H](NS(N)(=O)=O)CC3 [Compound 7-1, (1S,9S)-1-sulfamoylamido-9-ethyl-5-fluoro-9-hydroxy-4-methyl-1,2,3,9,12,15-hexahydro-10H,13H-benzo[de]pyranol[3′,4′:6,7]indolizino[1,2-b]quinolin-10,13-dione] | 31 nM | 3.67 nM |  |  |  |  |  | 31.3 nM | 10.1 nM | 268 nM | 50.2 nM | 4.07 nM |  |  |  | 
CC[C@@]1(O)C(=O)OCc2c1cc1n(c2=O)Cc2c-1nc1cc(F)c(C)cc1c2CN [Control Compound 1, reference compound] |  |  | could be efflux transporter substrates | medium-permeability | 2.06 | 1.31 ×10⁻⁶ cm/s | 2.71 ×10⁻⁶ cm/s |  |  |  |  |  |  |  |  | 
CC[C@@]1(O)C(=O)OCc2c1cc1n(c2=O)Cc2c-1nc1cc(F)c(C)cc1c2CNC(=O)CO [Control Compound 2, reference compound] |  |  | could be efflux transporter substrates | low-permeability | 28 | 0.01 ×10⁻⁶ cm/s | 0.4 ×10⁻⁶ cm/s |  |  |  |  |  |  |  |  | 
CC[C@@]1(O)C(=O)OCc2c1cc1n(c2=O)Cc2c-1nc1cc(F)c(C)c3c1c2[C@@H](NC(=O)CO)CC3 [Control Compound 3, reference compound] |  |  | could be efflux transporter substrates | low-permeability | 15.2 | 0.31 ×10⁻⁶ cm/s | 4.65 ×10⁻⁶ cm/s |  |  |  |  |  |  |  |  | 
